Assay results reported in ChEMBL document CHEMBL3108695, “Inhibitors of factor d may provide a treatment for age-related macular degeneration” (ACS Med Chem Lett, 2014).

Target: Complement factor D (Homo sapiens, UniProt P00746)
Assay: Inhibition of recombinant human factor D expressed in Escherichia coli using Z-Lys-thiobenzyl and 2,4-dinitrobenzenesulfonyl-fluoresceine as substrate preincubated for 1 hr followed by substrate addition by spectrofluorimetric analysis

Sequence of Complement factor D (P00746 whole entry): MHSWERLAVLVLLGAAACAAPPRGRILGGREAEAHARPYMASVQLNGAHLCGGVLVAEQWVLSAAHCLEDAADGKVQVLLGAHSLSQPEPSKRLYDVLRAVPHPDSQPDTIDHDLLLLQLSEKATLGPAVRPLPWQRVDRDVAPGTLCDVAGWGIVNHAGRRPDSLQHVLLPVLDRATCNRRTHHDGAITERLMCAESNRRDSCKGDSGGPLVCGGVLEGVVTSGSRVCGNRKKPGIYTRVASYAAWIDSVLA

IC50: 2 nM
Compound: NC(=O)c1nn(CC(=O)N2[C@@H]3C[C@@H]3C[C@H]2C(=O)Nc2cccc(Br)n2)c2cnc(CF)cc12
